From patent US20230348487A1, “2-AMINOPYRIMIDINE COMPOUND AND PHARMACEUTICAL COMPOSITION THEREOF AND APPLICATION THEREOF” (GUANGZHOU SALUSTIER BIOSCIENCES CO., LTD., priority 2021, published 2023)

What was measured:
[1] = tested on: JAK3-STAT signaling in U937 cells; assay: Western blot of JAK3-STAT signaling in U937 cells; format: cell-based, human
Method: (§1) Cell line: human acute myeloid leukemia cell line U937
Time dependent experiment: the tested molecule LS6-45 was co-incubated with U937 cells at a fixed concentration (100 nM), and the total cell protein was extracted at a specific action time. Dose dependent experiment: After co-incubating the tested molecule LS6-45 at different concentrations with U937 cell line for 10 hours, the total cell protein was extracted. Suspended cells U937 were centrifuged to remove the supernatant, washed twice with PBS, and then added an appropriate amount of lysate mixture (RIPA lysate (strong): phosphatase inhibitor mixture (50×): PMSF=100:1:1), lysed for 30 minutes on ice, and centrifugated at 12000 rpm at 4° C. for 15 min). Took the supernatant and discarded the sediment. Took an appropriate amount of supernatant to measure the protein concentration by the BCA method. Then added loading buffer at a 5:1 ratio and boiled at 100° C. for 7 minutes to be used for Western Blot experiments or stored in a −80° C. freezer for later use.
The experimental results are shown in FIG. 4, wherein the Western Blot analysis of compound LS6-45 on JAK3, STAT3, STAT5 proteins and their time/dose-dependent phosphorylation was performed, and GAPDH was used as an internal reference. In FIG. 4, A represents the U937 cell line treated with compound LS6-45 (100 nM) in a time-dependent manner, while B represents the U937 cell line treated with compound LS6-45 in a dose-dependent manner for 10 hours (diluted at five concentrations of 800 nM 1:4).

[2] = tested on: phosphorylation of JAK3 and STAT5 in U937 cells; assay: Wash out experiment in U937 cells; format: cell-based, human; details: 200 nM 10 hours then removed
Method: as §1
After 200 nM test compound LS6-45 was co-incubated with U937 cells for 10 hours, the supernatant was discarded by centrifugation. The cells were collected and washed with PBS to remove residual compounds. After adding fresh culture medium, the cells continued to be cultured in a 37° C. incubator. Cells were collected at 0, 0.5, 1, 2, 4, 8, 12, and 16 hours, and protein was extracted for Western blot analysis.

U937 cells [3] = assay: In vivo anti-tumor activity, U937 subcutaneous tumor in mice
Method: Animal model: 4-6 weeks old Male CB-17 SCID mice
U937 cells were cultured in vitro (1640+10% FBS+1% dual antibody) and amplified to 50 plates (10 cm). The cells were collected into a 50 mL centrifuge tube, centrifuged at 800 rpm for 5 minutes. The supernatant was discarded, and the cells was enriched into a 50 mL sterile centrifuge tube, washed once with PBS, and centrifuged at 800 rpm for 5 minutes. The cells were suspended with an appropriate amount of sterile PBS, counted and diluted to 2×10^7 cells/mL; 0.2 mL cells per animal were inoculated subcutaneously in the right anterior axilla of the animal (preferably inoculated before the animal is 20 g).
5-7 days after inoculation (Since U937 tumor grows fast, observe once every 3 days), when the tumor grew to 100-200 mm^3, the mice were grouped and administered the drugs, and excluded the animals with too large or too small tumors. The mice were randomly divided into a medication group and a solvent group, with 6 mice in each group. The initial tumor volume and body weight were recorded on the day of grouping.
The administration cycle was 10 days, and daily administration was applied. The body weight and tumor volume of animals were measured once every 2 days. The formula for calculating tumor volume is: V=π/6*a*b*b (wherein a and b are the length and width of the tumor, respectively). The next day after the end of administration, the animal was weighed and the tumor volume was measured; and then the animal was sacrificed and the tumor was dissected to weighed. The tumor body was fixed with neutral formalin for pathological observation. Animal blood samples were collected for routine blood analysis according to experimental needs, and the main organs of the animals were collected for pathological analysis. At the end of the study, all animals were euthanized and the tumors, livers, kidneys, and lungs of […] were collected for further analysis.

U937 cells [4] = assay: Cell cycle detection in U937 cells; format: cell-based, human; details: 24 hours
Method: Cell cycle detection: Took cells in good growth status and adjusted the density to 8×10^5 cells/mL, and evenly distributed them into 6-well plates, 2 mL per well. Then the compound was diluted in gradient and added to the cell suspension, and incubated in an incubator for 24 hours. BD Cycletest™ Plus DNA Reagent Kit was used for staining in this experiment. After 24 hours, the cells were collected into a 15 mL centrifuge tube, and the 6-well plate was washed twice with PBS. The washing solutions were merged into a 15 mL centrifuge tube, centrifuged at 12000 rpm for 5 minutes, and the supernatant was discarded. Added 5 mL of buffer solution to each tube and the cells were gently resuspended. Centrifuge: 12000 rpm for 5 minutes, the supernatant was carefully removed and left about 50 μL of liquid without discarding. Added 1.5 mL of buffer solution to each tube to gently resuspend the cells, which were carefully transferred to a 1.5 mL EP tube. Adjusted the cell concentration to 1×10^6 cells/mL, to meet the requirements of 5×10^5 cells to complete this experiment. Centrifuged at 1200 rpm for 5 minutes, and the supernatant was carefully aspirated. Added 125 μL of Solution A, mixed gently and reacted at room temperature for 10 minutes. Added 100 μL of Solution B, mixed gently and reacted at room temperature for 10 minutes. […]

U937 cells [5] = assay: Cell apoptosis detection in U937 cells; format: cell-based, human; details: 48 hours
Method: Cell apoptosis detection: Took cells in good growth status and adjusted the density to 8×10^5 cells/mL, evenly distributed them into 6-well plates, 2 mL per well. Then the compound was diluted in gradient and added to the cell suspension, and placed in the incubator for 48 hours. PE coupled Annexin V apoptosis detection kit was used for staining in this experiment. After 48 hours, cells were collected into a 15 mL centrifuge tube, and the 6-well plate was washed twice with PBS. The washing solutions were merged into a 15 mL centrifuge tube, centrifuged at 1200 rpm for 5 minutes, and the supernatant was discarded. The cells were washed with 1.5 mL of cold PBS and resuspended and transferred to a 1.5 mL EP tube. Repeated washing with cold PBS once and after centrifugation at 1200 rpm for 5 minutes, discarded the supernatant. Added 100 μL of 1×Binding Buffer (PBS dilution) to resuspend the cells. Added 2.5 μL of Annexin V-PE and 2.5 μL 7-AAD, mixed gently and reacted at room temperature in the dark for 15 minutes. Added 400 μL of 1× Binding Buffer, and then perform detection with an up-flow cytometry within 1 hour. Note: It is necessary to set up a single label control tube with apoptotic cells, and sample tubes with the same conditions; place the stained samples on ice.

In the case of `C=CC(=O)Nc1cc(Nc2ncc(Cl)c(O[C@@H]3CO[C@H]4[C@@H]3OC[C@H]4OC)n2)ccc1N(C)CCN(C)C` [LS 6-45], the “phosphorylation level of JAK3 (Western blot)” value ([1]; 50 nM, 10 hours) is reported as “significantly weakened”, the “phosphorylation level of JAK3 protein (Western blot)” value ([1]; 100 nM, 4 hours) is reported as “effectively reduced the phosphorylation level of JAK3 protein” and the “JAK3 phosphorylation (Western blot)” value ([1]; 100 nM, around 8 hours) is reported as “completely inhibited JAK3 phosphorylation”. The “phosphorylation levels of downstream proteins STAT3 and STAT5” value ([1]; 100 nM, time course) was “weakened in a time-dependent manner”, the “phosphorylation level of JAK3 (Western blot)” value ([1]; 200 nM, 10 hours) was “almost completely disappeared” and the “phosphorylation levels of downstream proteins STAT3 and STAT5” value ([1]; different concentrations, 10 hours) was “dose-dependent weakening”. The “phosphorylation levels of JAK3 and STAT5 after wash out” value ([2]; between 8-12 hours) was “slowly recovered”, the “phosphorylation levels of JAK3 and STAT5 after wash out” value ([2]; within 8 hours) was “continuously inhibited” and the “toxic side effects and body weight” value (U937 cells [3]; CB-17 SCID mice, during the administration period) was “no toxic side effects and no signs of weight loss”. The tumor growth (U937 cells [3]; U937 tumor in CB-17 SCID mice, 50 mg/kg dose group, oral bid) was “completely stagnant or even regressed”, the “growth rate of tumors” value (U937 cells [3]; U937 tumor in CB-17 SCID mice, during 10 days administration, versus control group) was “significantly lower than that of the control group” and the “phosphorylation of JAK3, STAT3, STAT5 and cell cycle related proteins in tumor tissues (Western blot)” value (U937 cells [3]; tumor tissues of experimental mice, compared with control group) was “significant inhibitory effects”. The “cell cycle related proteins (CDK2, CDK4, CDK6, Cyclin B1, Cyclin D3, Cyclin E1)” value (U937 cells [4]) was “significantly down-regulated”, the cell cycle (U937 cells [4]; different concentrations) was “obvious G0/G1 phase block” and the cell apoptosis (U937 cells [5]) was “No apoptosis was observed”.
